Data published in patent publication US4882349A, “Pyrrolacetic amides having antiinflammatory activity” (priority 1982, dated 1989).

Columns and labels:
[1] = system: phenyl-p-quinone-induced writhing (abdominal contractions); assay: phenylquinone-induced writhing test (analgesic activity), compound given 30 min before phenyl-p-quinone; assay type: in vivo, male Wistar rats
In short: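 Male Wistar rats (110±5 g), fasted 14 h, received test compounds orally or parenterally in 0.5% CMC/saline vehicle 30 min before 2 ml of 0.36% phenyl-p-quinone in 5% ethanol.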

[2] = system: cough provoked by mechanical stimulation of the tracheal bifurcation mucosa; assay: antitussive activity, mechanically provoked coughing; assay type: in vivo, albino Guinea-pigs; settings: 1 h after administration
In short: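 Albino guinea-pigs (300 g) with a tracheal Y cannula; coughing provoked by mechanically stimulating the tracheal bifurcation mucosa with a boar's hair.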

[3] = system: mucus secreted by the respiratory airway; assay: antisecretory activity, respiratory mucus secretion; assay type: in vivo, albino male New Zealand rabbits; settings: vs control group
In short: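 Male New Zealand rabbits, groups of four, urethane-anaesthetised (1.1 g/kg i.p.) with tracheal Y cannula breathing 100%-humidity air at 39° C. Mucus collected and measured 3 and 6 h post-dose; change expressed as percent difference from vehicle controls.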

[4] = system: carrageenin-induced oedema; assay: carrageenin-induced oedema test (anti-inflammatory activity); assay type: in vivo, albino male Wistar rats
in vivo = settings: rat
[5] = 25 mg/Kg, Table IV (route not given), 2 h
[6] = 25 mg/Kg, Table IV (route not given), 4 h
[7] = 25 mg/Kg, Table IV (route not given), 6 h
[8] = 25 mg/Kg, Table IV (route not given), 24 h
[9] = 25 mg/Kg, Table IV (route not given), 48 h
[10] = 25 mg/Kg, Table IV (route not given), 72 h
[11] = 50 mg/Kg, Table IV (route not given), 2 h
[12] = 50 mg/Kg, Table IV (route not given), 4 h
[13] = 50 mg/Kg, Table IV (route not given), 6 h
[14] = 50 mg/Kg, Table IV (route not given), 24 h
[15] = 50 mg/Kg, Table IV (route not given), 48 h
[16] = 50 mg/Kg, Table IV (route not given), 72 h
[17] = 100 mg/Kg, Table IV (route not given), 2 h
[18] = 100 mg/Kg, Table IV (route not given), 4 h
[19] = 100 mg/Kg, Table IV (route not given), 6 h
[20] = 100 mg/Kg, Table IV (route not given), 24 h
[21] = 100 mg/Kg, Table IV (route not given), 48 h
[22] = 100 mg/Kg, Table IV (route not given), 72 h

Cc1ccc(C(=O)c2ccc(CC(=O)N3CCOCC3)n2C)cc1 [Compound 3-a, 1-methyl-5-p-toluoylpyrrole-2-N-(4-morpholinyl) acetamide]
% Protection ([1]; 5 mg/Kg i.p.): 18.0%
% Protection ([1]; 5 mg/Kg per os): 16.0%
% Protection ([1]; 10 mg/Kg i.p.): 48.0%
% Protection ([1]; 10 mg/Kg per os): 39.0%
% Protection ([1]; 20 mg/Kg i.p.): 76.0%
% Protection ([1]; 20 mg/Kg per os): 65.0%
% inhibition, cough amplitude ([2]; 50 mg/Kg i.p.): 20%
% inhibition, cough frequency ([2]; 50 mg/Kg i.p.): 15%
% inhibition, cough amplitude ([2]; 50 mg/Kg per os): 15%
% inhibition, cough frequency ([2]; 50 mg/Kg per os): 16%
% inhibition, cough amplitude ([2]; 75 mg/Kg i.p.): 30%
% inhibition, cough frequency ([2]; 75 mg/Kg i.p.): 16%
% inhibition, cough amplitude ([2]; 75 mg/Kg per os): 30%
% inhibition, cough frequency ([2]; 75 mg/Kg per os): 18%
% inhibition, cough amplitude ([2]; 100 mg/Kg i.p.): 40%
% inhibition, cough frequency ([2]; 100 mg/Kg i.p.): 56%
% inhibition, cough amplitude ([2]; 100 mg/Kg per os): 35%
% inhibition, cough frequency ([2]; 100 mg/Kg per os): 45%
% difference in mucus secretion ([3]; 50 mg/Kg i.p., 3 h): -10%
% difference in mucus secretion ([3]; 50 mg/Kg i.p., 6 h): -7%
% difference in mucus secretion ([3]; 50 mg/Kg per os, 3 h): -7%
% difference in mucus secretion ([3]; 50 mg/Kg per os, 6 h): -8%
% difference in mucus secretion ([3]; 75 mg/Kg i.p., 3 h): -20%
% difference in mucus secretion ([3]; 75 mg/Kg i.p., 6 h): -18%
% difference in mucus secretion ([3]; 75 mg/Kg per os, 3 h): -15%
% difference in mucus secretion ([3]; 75 mg/Kg per os, 6 h): -10%
% difference in mucus secretion ([3]; 100 mg/Kg i.p., 3 h): -38%
% difference in mucus secretion ([3]; 100 mg/Kg i.p., 6 h): -29%
% difference in mucus secretion ([3]; 100 mg/Kg per os, 3 h): -32%
% difference in mucus secretion ([3]; 100 mg/Kg per os, 6 h): -25%
oedema % inhibition ([4]; 25 mg/Kg per os, 2 h): 27.1%
oedema % inhibition ([4]; 25 mg/Kg per os, 4 h): 29.0%
oedema % inhibition ([4]; 25 mg/Kg per os, 6 h): 32.3%
oedema % inhibition ([4]; 25 mg/Kg per os, 24 h): 7.1%
oedema % inhibition ([4]; 25 mg/Kg per os, 48 h): 0.0%
oedema % inhibition ([4]; 25 mg/Kg per os, 72 h): 0.0%
oedema % inhibition [4, 5]: 28.9%
oedema % inhibition [4, 6]: 32.7%
oedema % inhibition [4, 7]: 34.0%
oedema % inhibition [4, 8]: 10.1%
oedema % inhibition [4, 9]: 0.0%
oedema % inhibition [4, 10]: 0.0%
oedema % inhibition ([4]; 50 mg/Kg per os, 2 h): 46.0%
oedema % inhibition ([4]; 50 mg/Kg per os, 4 h): 49.1%
oedema % inhibition ([4]; 50 mg/Kg per os, 6 h): 48.0%
oedema % inhibition ([4]; 50 mg/Kg per os, 24 h): 13.4%
oedema % inhibition ([4]; 50 mg/Kg per os, 48 h): 0.0%
oedema % inhibition ([4]; 50 mg/Kg per os, 72 h): 0.0%
oedema % inhibition [4, 11]: 50.7%
oedema % inhibition [4, 12]: 48.9%
oedema % inhibition [4, 13]: 42.0%
oedema % inhibition [4, 14]: 11.2%
oedema % inhibition [4, 15]: 0.0%
oedema % inhibition [4, 16]: 0.0%
oedema % inhibition ([4]; 100 mg/Kg per os, 2 h): 60.0%
oedema % inhibition ([4]; 100 mg/Kg per os, 4 h): 55.2%
oedema % inhibition ([4]; 100 mg/Kg per os, 6 h): 69.7%
oedema % inhibition ([4]; 100 mg/Kg per os, 24 h): 18.1%
oedema % inhibition ([4]; 100 mg/Kg per os, 48 h): 0.0%
oedema % inhibition ([4]; 100 mg/Kg per os, 72 h): 0.0%
oedema % inhibition [4, 17]: 69.8%
oedema % inhibition [4, 18]: 69.0%
oedema % inhibition [4, 19]: 63.0%
oedema % inhibition [4, 20]: 13.1%
oedema % inhibition [4, 21]: 0.0%
oedema % inhibition [4, 22]: 0.0%
LD50 (in vivo; ip): 1370 mg/kg
LD50 (in vivo; po): > 2400 mg/kg

Cc1ccc(C(=O)c2ccc(CC(=O)N3CCN(C)CC3)n2C)cc1 [Compound 3-b, 1-methyl-5-p-toluoylpyrrole-2-N-[(4-methyl)-1-piperazinyl] acetamide]
% Protection ([1]; 5 mg/Kg i.p.): 28.0%
% Protection ([1]; 5 mg/Kg per os): 20.0%
% Protection ([1]; 10 mg/Kg i.p.): 50.0%
% Protection ([1]; 10 mg/Kg per os): 52.0%
% Protection ([1]; 20 mg/Kg i.p.): 80.3%
% Protection ([1]; 20 mg/Kg per os): 78.0%
% inhibition, cough amplitude ([2]; 50 mg/Kg i.p.): 20%
% inhibition, cough frequency ([2]; 50 mg/Kg i.p.): 28%
% inhibition, cough amplitude ([2]; 50 mg/Kg per os): 18%
% inhibition, cough frequency ([2]; 50 mg/Kg per os): 29%
% inhibition, cough amplitude ([2]; 75 mg/Kg i.p.): 30%
% inhibition, cough frequency ([2]; 75 mg/Kg i.p.): 20%
% inhibition, cough amplitude ([2]; 75 mg/Kg per os): 30%
% inhibition, cough frequency ([2]; 75 mg/Kg per os): 18%
% inhibition, cough amplitude ([2]; 100 mg/Kg i.p.): 52%
% inhibition, cough frequency ([2]; 100 mg/Kg i.p.): 40%
% inhibition, cough amplitude ([2]; 100 mg/Kg per os): 45%
% inhibition, cough frequency ([2]; 100 mg/Kg per os): 39%
% difference in mucus secretion ([3]; 50 mg/Kg i.p., 3 h): -12%
% difference in mucus secretion ([3]; 50 mg/Kg i.p., 6 h): -10%
% difference in mucus secretion ([3]; 50 mg/Kg per os, 3 h): -9%
% difference in mucus secretion ([3]; 50 mg/Kg per os, 6 h): -5%
% difference in mucus secretion ([3]; 75 mg/Kg i.p., 3 h): -25%
% difference in mucus secretion ([3]; 75 mg/Kg i.p., 6 h): -22%
% difference in mucus secretion ([3]; 75 mg/Kg per os, 3 h): -18%
% difference in mucus secretion ([3]; 75 mg/Kg per os, 6 h): -10%
% difference in mucus secretion ([3]; 100 mg/Kg i.p., 3 h): -40%
% difference in mucus secretion ([3]; 100 mg/Kg i.p., 6 h): -36%
% difference in mucus secretion ([3]; 100 mg/Kg per os, 3 h): -36%
% difference in mucus secretion ([3]; 100 mg/Kg per os, 6 h): -30%
oedema % inhibition ([4]; 25 mg/Kg per os, 2 h): 28.1%
oedema % inhibition ([4]; 25 mg/Kg per os, 4 h): 33.4%
oedema % inhibition ([4]; 25 mg/Kg per os, 6 h): 30.0%
oedema % inhibition ([4]; 25 mg/Kg per os, 24 h): 10.2%
oedema % inhibition ([4]; 25 mg/Kg per os, 48 h): 0.0%
oedema % inhibition ([4]; 25 mg/Kg per os, 72 h): 0.0%
oedema % inhibition [4, 5]: 33.2%
oedema % inhibition [4, 6]: 36.0%
oedema % inhibition [4, 7]: 30.0%
oedema % inhibition [4, 8]: 10.0%
oedema % inhibition [4, 9]: 0.0%
oedema % inhibition [4, 10]: 0.0%
oedema % inhibition ([4]; 50 mg/Kg per os, 2 h): 49.1%
oedema % inhibition ([4]; 50 mg/Kg per os, 4 h): 48.0%
oedema % inhibition ([4]; 50 mg/Kg per os, 6 h): 49.7%
oedema % inhibition ([4]; 50 mg/Kg per os, 24 h): 15.2%
oedema % inhibition ([4]; 50 mg/Kg per os, 48 h): 0.0%
oedema % inhibition ([4]; 50 mg/Kg per os, 72 h): 0.0%
oedema % inhibition [4, 11]: 52.3%
oedema % inhibition [4, 12]: 55.6%
oedema % inhibition [4, 13]: 58.9%
oedema % inhibition [4, 14]: 11.2%
oedema % inhibition [4, 15]: 0.0%
oedema % inhibition [4, 16]: 0.0%
oedema % inhibition ([4]; 100 mg/Kg per os, 2 h): 69.7%
oedema % inhibition ([4]; 100 mg/Kg per os, 4 h): 68.0%
oedema % inhibition ([4]; 100 mg/Kg per os, 6 h): 69.0%
oedema % inhibition ([4]; 100 mg/Kg per os, 24 h): 35.0%
oedema % inhibition ([4]; 100 mg/Kg per os, 48 h): 8.9%
oedema % inhibition ([4]; 100 mg/Kg per os, 72 h): 0.0%
oedema % inhibition [4, 17]: 73.4%
oedema % inhibition [4, 18]: 77.1%
oedema % inhibition [4, 19]: 72.9%
oedema % inhibition [4, 20]: 25.6%
oedema % inhibition [4, 21]: 1.4%
oedema % inhibition [4, 22]: 0.0%
LD50 (in vivo; ip): 590 mg/kg
LD50 (in vivo; po): 1000 mg/kg
